{"source": "patent US4447422A", "about": "“Penicillins and compositions containing them” (Beecham Group p.1.c., priority 1981, dated 1984)", "test_in_all_cases": "antibacterial activity (MIC)", "assay_type_in_all_cases": "cell-based", "key": {"Ps aeruginosa 10662": {"tested_on": "Ps aeruginosa 10662", "conditions": "Table 1"}, "β-Haemolytic Strep CN10": {"tested_on": "β-Haemolytic Strep CN10", "conditions": "Table 1"}, "Klebsiella aerogenes A": {"tested_on": "Klebsiella aerogenes A", "conditions": "Table 1"}, "Ps aeruginosa Dalgleish": {"tested_on": "Ps aeruginosa Dalgleish", "conditions": "Table 1; Ps aeruginosa Dalgleish 10^-2"}, "E coli JT425": {"tested_on": "E coli JT425", "conditions": "Table 1"}, "P mirabilis C977": {"tested_on": "P mirabilis C977", "conditions": "Table 1"}, "Staph aureus Russell": {"tested_on": "Staph aureus Russell", "conditions": "Staphylococcus aureus, Table 1"}, "P rettgeri": {"tested_on": "P rettgeri", "conditions": "Table 1"}, "Step faecalis I": {"tested_on": "Step faecalis I", "conditions": "Table 1"}, "P mirabilis 889": {"tested_on": "P mirabilis 889", "conditions": "Table 1"}, "E coli ESS": {"tested_on": "E coli ESS", "conditions": "Table 1"}, "E coli NCTC 10418": {"tested_on": "E coli NCTC 10418"}, "N catarrhalis 1502": {"tested_on": "N catarrhalis 1502", "conditions": "Table 1"}, "Staph aureus Oxford": {"tested_on": "Staph aureus Oxford"}, "E coli JT4": {"tested_on": "E coli JT4", "conditions": "Table 1"}, "P morganii": {"tested_on": "P morganii", "conditions": "Table 1"}, "B subtilis": {"tested_on": "B subtilis", "conditions": "Table 1"}, "Serratia marcescens US32": {"tested_on": "Serratia marcescens US32", "conditions": "Table 1"}, "Enterobacter cloacae N1": {"tested_on": "Enterobacter cloacae N1", "conditions": "Table 1"}, "[1]": {"conditions": "Escherichia coli, NCTC10418, Table 2, gram negative organism E. coli NCTC 10418"}, "[2]": {"conditions": "Staphylococcus aureus, Table 1, Staph aureus Oxford, read-out: MIC"}, "[3]": {"conditions": "Table 2, gram positive organism Staph. aureus Oxford"}}, "note": "Structures can show the parent of a compound that is named as a salt. Where two headings read alike, the source gives them in different places.", "data": [{"compound": "CCCCNc1ncc(C(=O)N[C@@H](C(=O)N[C@@H]2C(=O)N3[C@@H]2SC(C)(C)[C@@H]3C(=O)O)c2ccccc2)c(O)n1", "note": "[Example 16, 6β-[D-2-(2-n-Butylamino-4-hydroxypyrimidine-5-carbonylamino)-2-phenyl] acetamido penicillanic acid, disodium salt]", "values": [{"measurement": "MIC", "setting": "Ps aeruginosa 10662; Ps aeruginosa 10662", "result": 5, "unit": "µg/mL"}, {"measurement": "MIC", "setting": "β-Haemolytic Strep CN10", "result": 0.02, "unit": "µg/mL"}, {"measurement": "MIC", "setting": "Klebsiella aerogenes A", "result": 12.5, "unit": "µg/mL"}, {"measurement": "MIC", "setting": "Ps aeruginosa Dalgleish", "result": 125, "unit": "µg/mL"}, {"measurement": "MIC", "setting": "E coli JT425", "result": 50, "unit": "µg/mL"}, {"measurement": "MIC", "setting": "P mirabilis C977", "result": 2.5, "unit": "µg/mL"}, {"measurement": "MIC", "setting": "Staph aureus Russell", "result": 125, "unit": "µg/mL"}, {"measurement": "MIC", "setting": "P rettgeri", "result": 5, "unit": "µg/mL"}, {"measurement": "MIC", "setting": "Step faecalis I", "result": 5, "unit": "µg/mL"}, {"measurement": "MIC", "setting": "P mirabilis 889", "result": "> 500", "unit": "µg/mL"}, {"measurement": "MIC", "setting": "E coli ESS", "result": 0.02, "unit": "µg/mL"}, {"measurement": "MIC", "setting": "E coli NCTC 10418; [1]", "result": 1.2, "unit": "µg/mL"}, {"measurement": "MIC", "setting": "E coli NCTC 10418; Table 1, E coli NCTC 10418", "result": 1.5, "unit": "µg/mL"}, {"measurement": "MIC", "setting": "N catarrhalis 1502", "result": 0.02, "unit": "µg/mL"}, {"measurement": "MIC", "setting": "Staph aureus Oxford; [2]", "result": 1.2, "unit": "µg/mL"}, {"measurement": "MIC", "setting": "Staph aureus Oxford; [3]", "result": 1.2, "unit": "µg/mL"}, {"measurement": "MIC", "setting": "E coli JT4", "result": "> 500", "unit": "µg/mL"}, {"measurement": "MIC", "setting": "P morganii", "result": 5, "unit": "µg/mL"}, {"measurement": "MIC", "setting": "B subtilis", "result": 1.2, "unit": "µg/mL"}, {"measurement": "MIC", "setting": "Serratia marcescens US32", "result": 12.5, "unit": "µg/mL"}, {"measurement": "MIC", "setting": "Enterobacter cloacae N1", "result": 5, "unit": "µg/mL"}]}, {"compound": "CCSCCNc1ncc(C(=O)N[C@@H](C(=O)N[C@@H]2C(=O)N3[C@@H]2SC(C)(C)[C@@H]3C(=O)O)c2ccccc2)c(O)n1", "note": "[Example 2, 6β-[D-2-(2-[2-Ethylthioethyl-1-amino]-4-hydroxypyrimidine-5-carbonylamino)-2-phenyl]acetamido penicillanic acid]", "values": [{"measurement": "MIC", "setting": "Ps aeruginosa 10662; Ps aeruginosa 10662", "result": 5, "unit": "µg/mL"}, {"measurement": "MIC", "setting": "Ps aeruginosa 10662; Ps aeruginosa 10662 10^-2", "result": 2.5, "unit": "µg/mL"}, {"measurement": "MIC", "setting": "β-Haemolytic Strep CN10", "result": "< 0.01", "unit": "µg/mL"}, {"measurement": "MIC", "setting": "Klebsiella aerogenes A", "result": 12.5, "unit": "µg/mL"}, {"measurement": "MIC", "setting": "Ps aeruginosa Dalgleish", "result": 125, "unit": "µg/mL"}, {"measurement": "MIC", "setting": "E coli JT425", "result": 50, "unit": "µg/mL"}, {"measurement": "MIC", "setting": "P mirabilis C977", "result": 2.5, "unit": "µg/mL"}, {"measurement": "MIC", "setting": "Staph aureus Russell", "result": 125, "unit": "µg/mL"}, {"measurement": "MIC", "setting": "P rettgeri", "result": 12.5, "unit": "µg/mL"}, {"measurement": "MIC", "setting": "Step faecalis I", "result": 5, "unit": "µg/mL"}, {"measurement": "MIC", "setting": "P mirabilis 889", "result": "> 500", "unit": "µg/mL"}, {"measurement": "MIC", "setting": "E coli ESS", "result": "< 0.01", "unit": "µg/mL"}, {"measurement": "MIC", "setting": "E coli NCTC 10418; [1]", "result": 2.5, "unit": "µg/mL"}, {"measurement": "MIC", "setting": "E coli NCTC 10418; Table 1, E coli NCTC 10418", "result": 2.5, "unit": "µg/mL"}, {"measurement": "MIC", "setting": "N catarrhalis 1502", "result": "< 0.01", "unit": "µg/mL"}, {"measurement": "MIC", "setting": "Staph aureus Oxford; [2]", "result": 1.25, "unit": "µg/mL"}, {"measurement": "MIC", "setting": "Staph aureus Oxford; [3]", "result": 1.25, "unit": "µg/mL"}, {"measurement": "MIC", "setting": "E coli JT4", "result": "> 500", "unit": "µg/mL"}, {"measurement": "MIC", "setting": "P morganii", "result": 25, "unit": "µg/mL"}, {"measurement": "MIC", "setting": "B subtilis", "result": 1.25, "unit": "µg/mL"}, {"measurement": "MIC", "setting": "Serratia marcescens US32", "result": 12.5, "unit": "µg/mL"}, {"measurement": "MIC", "setting": "Enterobacter cloacae N1", "result": 12.5, "unit": "µg/mL"}]}, {"compound": "CC1(C)S[C@@H]2[C@H](NC(=O)[C@H](NC(=O)c3cnc(NCc4ccccc4)nc3O)c3ccccc3)C(=O)N2[C@H]1C(=O)O", "note": "[Example 1, 6β-[D-2-(2-benzylamino-4-hydroxypyrimidine-5-carbonylamino)-2-phenyl]acetamido penicillanic acid]", "values": [{"measurement": "MIC", "setting": "Ps aeruginosa 10662; Ps aeruginosa 10662", "result": 5, "unit": "µg/mL"}, {"measurement": "MIC", "setting": "Ps aeruginosa 10662; Ps aeruginosa 10662 10^-2", "result": 2.5, "unit": "µg/mL"}, {"measurement": "MIC", "setting": "β-Haemolytic Strep CN10", "result": "< 0.02", "unit": "µg/mL"}, {"measurement": "MIC", "setting": "Klebsiella aerogenes A", "result": 50, "unit": "µg/mL"}, {"measurement": "MIC", "setting": "Ps aeruginosa Dalgleish", "result": 50, "unit": "µg/mL"}, {"measurement": "MIC", "setting": "E coli JT425", "result": 25, "unit": "µg/mL"}, {"measurement": "MIC", "setting": "P mirabilis C977", "result": 2.5, "unit": "µg/mL"}, {"measurement": "MIC", "setting": "Staph aureus Russell", "result": 50, "unit": "µg/mL"}, {"measurement": "MIC", "setting": "P rettgeri", "result": 10, "unit": "µg/mL"}, {"measurement": "MIC", "setting": "Step faecalis I", "result": 5, "unit": "µg/mL"}, {"measurement": "MIC", "setting": "P mirabilis 889", "result": "> 100", "unit": "µg/mL"}, {"measurement": "MIC", "setting": "E coli ESS", "result": "< 0.02", "unit": "µg/mL"}, {"measurement": "MIC", "setting": "E coli NCTC 10418; [1]", "result": 2.5, "unit": "µg/mL"}, {"measurement": "MIC", "setting": "E coli NCTC 10418; Table 1, E coli NCTC 10418", "result": 2.5, "unit": "µg/mL"}, {"measurement": "MIC", "setting": "N catarrhalis 1502", "result": "< 0.02", "unit": "µg/mL"}, {"measurement": "MIC", "setting": "Staph aureus Oxford; [2]", "result": 0.5, "unit": "µg/mL"}, {"measurement": "MIC", "setting": "Staph aureus Oxford; [3]", "result": 0.5, "unit": "µg/mL"}, {"measurement": "MIC", "setting": "E coli JT4", "result": "> 100", "unit": "µg/mL"}, {"measurement": "MIC", "setting": "P morganii", "result": 50, "unit": "µg/mL"}, {"measurement": "MIC", "setting": "B subtilis", "result": 2.5, "unit": "µg/mL"}, {"measurement": "MIC", "setting": "Serratia marcescens US32", "result": 10, "unit": "µg/mL"}, {"measurement": "MIC", "setting": "Enterobacter cloacae N1", "result": 10, "unit": "µg/mL"}]}]}
